Experimental data taken from EP0874818B1, “NOVEL SUBSTITUTED ARYL COMPOUNDS USEFUL AS MODULATORS OF ACETYLCHOLINE RECEPTORS” (priority 1995, dated 1997).
Read-outs that look alike come from different tables or passages of the source.

What was measured:
[1] = biological target: muscarinic acetylcholine receptors; assay: 3H-QNB (quinuclidinyl benzilate) displacement, rat cerebral membranes; type: binding; conditions: read-out: Displacement of Radiolabeled Liqands IC50 Quinuc Benz
rat striatal slices = assay: 3H-dopamine release from rat striatal slices (superfusion); type: cell-based; conditions: read-out: % of Nicotine Response 3H-DA Striatum
Method: Measurement of ^3H-dopamine (^3H-DA) release from rat striatal slices was performed according to the method of Sacaan et al., (J. Pharmacol. Comp. Ther 224:224-230 (1995)). Male Sprague-Dawley rats (250-300 g) were decapitated and the striata or olfactory tubercles dissected quickly on a cold glass surface. The tissue was chopped to a thickness of 300 µm with a McIlwain tissue chopper. After chopping again at right angles the tissue was dispersed and incubated for 10 min. at 37°C in oxygenated Kreb's buffer. ^3H-Dopamine (40 Ci/mmol, NEN-Dupont, Boston, Ma) was added (50 nM) and the tissue was incubated for 30 min. in Kreb's buffer containing 10 µM pargyline and 0.5 mM ascorbic acid. Aliquots of the minced tissue were then transferred to chambers of a Brandel Superfusion system in which the tissue was supported on Whatman GF/B filter discs. The tissue was then superfused with buffer at a constant flow rate of 0.3 ml/min by means of a Brandel peristaltic pump. The perfusate was collected in plastic scintillation vials in 3-min fractions, and the radioactivity was estimated by scintillation spectrophotometry. The superfusate for the first 120 min was discarded. […] At the end of the experiment the filter and the tissue were removed, and the radiolabeled neurotransmitter content was estimated after extraction into scintillation fluid. The fractional efflux of radiolabeled neurotransmitter was estimated as the amount of radioactivity in the perfusate fraction relative to the total amount in the tissue.
The results presented in the Table are expressed as the percent fractional release.

[2] = system: acetylcholine release in the hippocampus; type: in vivo, Male Sprague Dawley Rats
From the text: Male Sprague Dawley Rats (230-290 g) were anesthetized in a chamber saturated with isofluorane. Once immobilized, the rats were mounted in a Kopf stereotaxic apparatus with the incisor bar set at -3.3 mm (Praxinos and Watson, 1986). A midline incision was made on the skull to expose the underlying fascia. The skull was cleaned with an antibacterial preparation containing iodine and a hole was made in the skull at the following coordinates: AP, -3.5 mm and ML, +2.0 mm (Praxinos and Watson, 1986). A stainless steel guide cannula (Small Parts, Inc., Stillwater, FL) was cut to 2.0 mm length and inserted into the hole. Three additional holes were drilled into the skull surrounding the guide cannula and small machine screws were placed into these holes. The guide cannula and screws were secured by dental cement. A dummy cannula was inserted into the guide cannula to prevent clogging. The animals were removed from the stereotaxic frame and single housed for 3-7 days with free access to food and water.
On the day of the experiment, the rats were briefly anesthetized with isofluorane and the dummy cannulae were removed. A microdialysis cannula containing a Loop type probe with a rigid shaft and molecular weight cut-off of 6000 (ESA Inc, Chelmsfold, MA) of approximately 2 mm in length, was inserted into the guide cannula. Under these conditions, the microdialysis probe extended 2 mm beneath the guide cannula. The animal was placed in plastic bowl (CMA 120; CMA Microdialysis, Acton, MA, USA) with a harness around the neck. The microdialysis probe was connected to a syringe pump through which a salt solution representing the ionic concentration of the cerebrospinal fluid (artificial CSF; 145 mM NaCl; […]; […] and […]; pH 7.4; Moghaddam and Bunney, J. Neurochem, 53, 652-654, 1989) containing 100 nM neostigmine was pumped at a rate of 1.5 µL/min.
Twenty minute fractions were collected and automatically injected via a sample loop and an auto-injector. The on-line microdialysis comprised of the following components: a CMA/100 microsyringe pump connected to a CMA/111 syringe selector. The mobile phase (100 mM disodium hydrogen phosphate; 2.0 mM 1-octane sulfonic acid sodium salt; 0.005% reagent MB (ESA Inc., Chelmeford, MA) pH 8.00 with phosphoric acid) was pumped using a model 580 ESA pump through a polymeric reverse phase column (ACH-3, ESA Inc., […]; 3.2 mmx 15 cm). The effluent from the column was passed through an enzyme reactor containing immobilized acetylcholinesterase and choline oxidase (ACH-SPR, ESA Inc.). The HPLC column and the enzyme reactor were placed in a housing with a constant temperature of 35°C. Acetylcholine and choline in microdialysis samples were converted into hydrogen peroxide which was detected by amperometric oxidation in a ESA model 5041 analytical cell containing a glassy carbon target electrode and a palladium reference electrode. The oxidation potential was 250 mV and the signal was detected by a ESA model 5200 A Coulochem detector. The retention times for choline and acetylcholine under these conditions were 4 and 6 min, respectively. The limit of detection for acetylcholine was less than 100 fmol on column.
On the day of the experiment, 10-12 fractions were collected to establish the baseline acetylcholine release. Following the establishment of baseline, rats were injected with the test compound and samples were collected until the levels of acetylcholine in the dialysate samples returned to baseline levels (3-5 hr). Compounds were typically dissolved in saline and the pH of the solution was adjusted by the addition of NaOH.

rat hippocampus = assay: tissue or blood; type: cell-based; conditions: read-out: % of Nicotine Response 3H-NE Hippocampus
[3] = 60 pM 3H-QNB, rat cerebral membranes, no atropine
[4] = compound tested at 300 µM, relative to nicotine 10µM
[5] = hippocampal acetylcholine, rat microdialysis, nicotine 0.4 mg/kg, lobeline 5.0 mg/kg, first Formula Z compound 40 mg/kg, other doses not given

`COc1ccc(SCCC2CCCN2C)cc1F` (stereo not drawn) [2-[2-(3-Fluoro-4-methoxyphenyl)thioethyl]-1-methylpyrrolidine] was tested, and the IC50 [1, 3] was 2.9 µM and the Emax at 300 µM (rat striatal slices; [4]) was 21%.

Compound `CN1CCC[C@H]1COC(=O)CCc1ccc(O)cc1` [1-Methvl-2-pyrrolidinemethyl 3-(4-hydroxyphenyl)propionate] has an IC50 [1, 3] of over 10 µM.

`CN1CCC[C@H]1COC(=O)CCc1ccccc1` [1-Methyl-2-pyrrolidinemethyl 3-phenylpropionate] gave an IC50 [1, 3] of 1.12 µM.

With `CN1[C@@H](CC(=O)c2ccccc2)CCC[C@H]1C[C@H](O)c1ccccc1` [Lobeline] the “Duration of Increase Above Baseline” value [2, 5] was 200 min and the “Peak Increase, % of Baseline” value [2, 5] was 400 % of Baseline.

For `CNC1(C)C2CCC(C2)C1(C)C` (stereo not drawn) [mecamylamine], the “attenuation of acetylcholine release induced by compound of Formula Z (A = 4-hydroxyphenyl, B = not present, D = -S-, E = -CH2CH2-, G = 1-methylpyrrolidino)” value ([2]; rat hippocampus microdialysis, Figure 5) was “attenuation of acetylcholine release”.

Work on `CN1CCCC1CCSc1ccc(O)cc1` (stereo not drawn) [2-[2-(4-Hydroxyphenyl)thioethyl]-1-methylpyrrolidine] yielded an IC50 [1] of 1.85 µM, an Emax at 300 µM (rat striatal slices) of 453% and an Emax at 300 µM (rat hippocampus) of 32%. The “Duration of Increase Above Baseline” value [2, 5] was 200 min and the “Peak Increase, % of Baseline” value [2, 5] was 2,000 % of Baseline.

For `CN1CCCC1c1cccnc1` (stereo not drawn) [Nicotine, reference compound], the Emax at 10 µM (rat striatal slices) was 100%, the Emax at 300 µM (rat hippocampus) was 100% and the “Duration of Increase Above Baseline” value ([2]; rat, in vivo) was 200 min. The “Peak Increase, % of Baseline” value ([2]; rat, in vivo) was 220 % of Baseline.

`CN1CCCC1CCSc1ccc(O)cc1Cl` (stereo not drawn) [2-[2-(2-Chloro-4-hydroxyphenyl)thioethyl]-1-methylpyrrolidine] was tested, and the IC50 [1, 3] was 3.3 µM and the Emax at 300 µM (rat striatal slices; [4]) was 800%.
